{"source": "BindingDB's records for doi:10.1016/s0960-894x(03)00664-4", "about": "(Eli Lilly, 2003)"}
{"molecular_target": "Acetyl-CoA carboxylase 1 (Rattus norvegicus, UniProt P11497)", "assay": "Inhibitory concentration against rat heart ACC by the carboxylation of acetyl-CoA with [14C]-HCO3- to form [14C]-malonyl CoA; 18-40 uM", "units": {"IC50": "µM"}}
{"smiles": "CC/C(=N\\OC/C=C/Cl)C1C(=O)CC(C2CCOCC2)CC1=O", "note": "(stereo not given) [2-{1-[(E)-(E)-3-Chloro-allyloxyimino]-propyl}-3-hydroxy-5-(tetrahydro-pyran-4-yl)-cyclohex-2-enone]", "IC50": 40}
{"smiles": "CCC/C(=N\\OCC)C1C(=O)CC(CC(C)SCC)CC1=O", "note": "(stereo not given) [2-{1-[(E)-Ethoxyimino]-butyl}-5-(2-ethylsulfanyl-propyl)-3-hydroxy-cyclohex-2-enone]", "IC50": 40}
{"smiles": "CCSC(C)CC1CC(=O)C(/C(CC)=N/OC/C=C/Cl)C(=O)C1", "note": "(stereo not given) [clethodim]", "IC50": 40}
{"smiles": "CCO/N=C(\\CC)C1C(=O)CC(c2c(C)cc(C)cc2C)CC1=O", "note": "(stereo not given) [2-{1-[(E)-Ethoxyimino]-propyl}-3-hydroxy-5-(2,4,6-trimethyl-phenyl)-cyclohex-2-enone]", "IC50": 40}
{"smiles": "CCC/C(=N\\OCC)C1C(=O)CC(C2CCCSC2)CC1=O", "note": "(stereo not given) [2-{1-[(E)-Ethoxyimino]-butyl}-3-hydroxy-5-(tetrahydro-thiopyran-3-yl)-cyclohex-2-enone]", "IC50": 40}
